This note sets out measurements from patent US9382276B2, “Water-soluble O-carbonyl phosphoramidate prodrugs for therapeutic administration” (MicuRx Pharmaceuticals, Inc., priority 2014, dated 2016).

Converted amounts (≈) assume the structure as drawn.

Data set [1] relates to Staphylococcus aureus strain SAU1018. The experiment in a line: mouse peritonitis infection model (survival, ED50). To be noted: parent drug control in same test, in 20% aqueous beta-hydroxypropylcyclodextrin (HPCD) formulation, read-out: ED50 (effective dose for survival of 50% of animals). Format: in vivo.
The nature of data set [2]: in vivo. The note with it: rat, iv, 10 mg/kg.
Data set [3] is described as follows: physchem. The note with it: water or conventional aqueous solutions, thermodynamic from solid.
The conditions of data set [4]: pH range of about 3-9.

As a reminder, the ED50 is the dose that gives a 50% effect, or the effect in half of the subjects. In general, AUC refers to the area under the concentration-time curve, a measure of exposure. A higher AUC goes with high exposure. A word on the solubility: it is the dissolved amount per volume that the medium holds. A low value points to a poorly soluble substance. Turning to `O=C1C=CN(c2c(F)cc(N3C[C@H](CNc4ccon4)OC3=O)c(F)c2F)CC1` [MRX-I], the ED50 in data set [1] turned out to be 10 mg/kg. Moreover, in data set [2], the area under the curve (AUC) is approximately 25400 ng·h/mL. Also, the solubility in data set [3] was approximately 250 µg/mL (≈ 612 µM). The “pH dependence of solubility in water” value in data set [4] is listed as “virtually pH-independent”.
